Measurements as given in US6562814B2, “3-thioxo-[1,2,4]-oxadiazinan-5-one derivatives” (Wyeth, priority 2000, dated 2003).

Key:
serum HDL cholesterol = assay: HDL cholesterol determination in cholesterol/cholic acid-fed rats; assay type: in vivo, Male Sprague-Dawley rats; details: Rattus norvegicus, feed or water, 192 h, 8 days, rats fed chow with 0.25% cholic acid and 1.0% cholesterol, FPLC, read-out: HDL Cholesterol Level Increase (%); for change in vivo at 100 mg/kg/day: dose 100 mg/kg/day in diet
Experimental: The ability of the compounds of this invention to increase blood serum HDL levels was established by the following standard experimental procedure for determination of HDL cholesterol:
Male Sprague-Dawley rats weighing 200-225 g were housed two per cage and fed Purina Rodent Chow Special Mix 5001-S supplemented with 0.25% cholic acid and 1.0% cholesterol and water ad libitum for 8 days. Each test substance is administered to a group of six rats fed the same diet with the test diet mixed in as 0.005-0.1% of the total diet. Body weight and food consumption were recorded prior to diet administration and at termination. Typical doses of the test substances were 5-100 mg/kg/day.
At termination, blood was collected from anesthetized rats and the serum was separated by centrifugation. Total serum cholesterol was assayed using the Sigma Diagnostics enzymatic kit for the determination of cholesterol, Procedure No. 352, modified for use with ninety-six well microtiter plates. After reconstitution with water the reagent contains 300 U/I cholesterol oxidase, 100 U/I cholesterol esterase, 1000 U/I horse radish peroxidase, 0.3 mmoles/l 4-aminoantipyrine and 30.0 mmoles/l p-hydroxybenzenesulfonate in a pH 6.5 buffer. In the reaction cholesterol was oxidized to produce hydrogen peroxide which was used to form a quinoneimine dye. The concentration of dye formed was measured spectrophotometrically by absorbence at 490 nm after incubation at 25° C. for 30 minutes. The concentration of cholesterol was determined for each serum sample relative to a commercial standard from Sigma.
HDL cholesterol concentrations in serum are determined by separation of lipoprotein classes by fast protein liquid chromatography (FPLC) by a modification of the method of Kieft et al., J. Lipid Res., 32 (1991) 859-866. 25 ul of serum was injected onto Superose 12 and Superose 6 (Pharmacia), in series, with a column buffer of 0.05 M Tris (2-amino-2-hydroxymethyl-1,3-propanediol) and 0.15 M sodium chloride at a flow rate of 0.5 ml/min. The eluted sample was mixed on line with Boehringer-Mannheim cholesterol reagent pumped at 0.2 ml/min. The combined eluents are mixed and incubated on line through a knitted coil (Applied Biosciences) maintained at a temperature of 45C. The eluent was monitored by measuring absorbence at 490 nm and gives a continuous absorbence signal proportional to the cholesterol concentration. The relative concentration of each lipoprotein class was calculated as the percent of total absorbence. HDL cholesterol concentration, in serum, was calculated as the percent of total cholesterol as determined by FPLC multiplied by the total serum cholesterol concentration.
Test compounds were administered at the specified dose. Each test substance was administered to a group of six rats. The duration of treatment was eight days.

Compound	change in vivo at 100 mg/kg/day (serum HDL cholesterol) [%]	melting point [°C]	change in vivo at 85 mg/kg/day (serum HDL cholesterol; dose 85 mg/kg/day in diet) [%]
Cc1cc(Cl)ccc1N1C(=O)CON(C)C1=S [Example 1, 4-(4-Chloro-2-methylphenyl)-2-methyl-3-thioxo-[1,2,4]oxadiazinan-5-one]	221	141 to 143	–
CN1OCC(=O)N(C(c2ccccc2)c2ccccc2)C1=S [Example 2, 4-Benzhydryl-2-methyl-3-thioxo-[1,2,4]oxadiazinan-5-one]	60	152 to 154	–
Cc1ccc(Cl)cc1N1C(=O)CON(C)C1=S [Example 3, 4-(5-Chloro-2-methylphenyl)-2-methyl-3-thioxo-[1,2,4]oxadiazinan-5-one]	236	100 to 102	–
CCN1OCC(=O)N(c2cc(Cl)ccc2C)C1=S [Example 4, 4-(5-Chloro-2-methylphenyl)-2-ethyl-3-thioxo-[1,2,4]oxadiazinan-5-one]	–	119 to 121	136
CN1OCC(=O)N(c2ccc3c(c2)CCC3)C1=S [Example 5, 4-Indan-5-yl-2-methyl-3-thioxo-[1,2,4]oxadiazinan-5-one]	192	135 to 137	–
Cc1ccc(C)c(N2C(=O)CON(C)C2=S)c1 [Example 6, 4-(2,5-Dimethylphenyl)-2-methyl-3-thioxo-[1,2,4]oxadiazinan-5-one]	72	104 to 106	–
Cc1cccc(Cl)c1N1C(=O)CON(C)C1=S [Example 7, 4-(2-Chloro-6-methylphenyl)-2-methyl-3-thioxo-[1,2,4]oxadiazinan-5-one]	100	176 to 178	–
CC(C)c1ccccc1N1C(=O)CON(C)C1=S [Example 8, 4-(2-Isopropylphenyl)-2-methyl-3-thioxo-[1,2,4]oxadiazinan-5-one]	95	98 to 101	–
CN1OCC(=O)N(c2ccc(C(C)(C)C)cc2)C1=S [Example 9, 4-(4-tert-Butylphenyl)-2-methyl-3-thioxo-[1,2,4]oxadiazinan-5-one]	170	168 to 170	–
CN1OCC(=O)N(c2ccc(Oc3ccccc3)cc2)C1=S [Example 10, 4-(4-Phenoxyphenyl)-2-methyl-3-thioxo-[1,2,4]oxadiazinan-5-one]	102	159 to 160	–
COc1ccc(Cl)cc1N1C(=O)CON(C)C1=S [Example 11, 4-(5-Chloro-2-methoxyphenyl)-2-methyl-3-thioxo-[1,2,4]oxadiazinan-5-one]	78	189 to 191	–
